We go through two molecules from US20090011410A1, “METHOD FOR TAILORING ADMINISTRATION OF DRUGS BY QUANTITATION OF MRNA” (priority 2004, published 2009).

The experiment has as its system PUMA mRNA. The experiment is described as follows: drug-induced PUMA mRNA expression in whole blood of healthy adults. Format: cell-based, human. The conditions noted are these: for kinetics of PUMA induction: heparinized whole blood, 0-8 hours at 37° C., 20 μM BLM, 100 μM VP-16 (FIG. 5). On the procedure:
In 8-well strip microtubes, 1.4 μl of 50× concentrations of drugs or controls (phosphate buffered saline (PBS) or DMSO) were added, and stored at −20° C. until use. […] Seventy μl of fresh heparinized whole blood was added into each well in triplicate, and incubated at 37° C. for 2-8 hours with the cap closed. For radiation treatment, blood was stimulated at designated doses using cesium-137. After each treatment, 50 μl of whole blood was transferred to filterplates as described below.
The mRNA and cDNA were prepared from whole blood. In brief, home-made 96-well filterplates were placed over collection plates, and 150 μl 5 mM Tris, pH 7.4, was applied. Following centrifugation at 120×g for 1 min at 4° C., 50 μl of blood samples were applied to each well and immediately centrifuged at 120×g for 2 min at 4° C., followed by washing of each well with 300 μl PBS once with centrifugation at 2000×g for 5 min at 4° C. Then, 60 μl stock lysis buffer, containing for example 0.5% N-Lauroylsarcosine, 4×SSC, 10 mM Tris HCl, pH 7.4, 1 mM EDTA, 0.1% IGEPAL CA-630, and 1.791 M guanidine thiocyanate, supplemented with 1% 2-mercaptoethanol (Bio Rad, Hercules, Calif., USA), 0.5 mg/ml proteinase K (Pierce, Rockford, Ill., USA), 0.1 mg/ml salmon sperm DNA (5 Prime Eppendorf/Brinkmann, Westbury, N.Y., USA), 0.1 mg/ml E. coli tRNA (Sigma), a cocktail of 10 mM each of the specific reverse primers shown in Table 1, and standard RNA34 oligonucleotides, were applied to the filterplates, followed by incubation at 37° C. for 10 min. The filterplates were then placed over oligo(dT)-immobilized microplates (GenePlate, RNAture), and centrifuged at 2000×g for 5 min at 4° C. Following overnight storage at 4° C., the microplates were washed with 100 μl plain lysis buffer 3 times, followed by 150 μl of wash buffer (0.5 M NaCl, 10 mM Tris, pH 7.4, 1 mM EDTA) 3 times at 4° C. The cDNA was directly synthesized in each well by adding 30 μl buffer containing 1×RT-buffer, 1.25 mM each of dNTP, 4 units rRNasin, and 80 units of MMLV reverse transcriptase (Promega) (without primers), and incubation at 37° C. for 2 hours. The specific primer-primed cDNA existed in solution, and oligo(dT)-primed cDNA stayed immobilized in the microplate. For TaqMan PCR (FIGS. 1, 3, 4), the resultant 4 μl cDNA solution was directly transferred to 384-well PCR plates, to which 5 μl of TaqMan universal master mix (ABI) and 1 μl oligonucleotide cocktail (15 μM each of forward and reverse primer, and 3-6 μM TaqMan probe) were applied, and PCR was conducted in PRISM 7900HT (ABI), with one cycle of 95° C. for 10 min followed by 45 cycles of 95° C. for 30 sec, 55° C. for 30 sec, and 60° C. for 1 min. For SYBR Green PCR (see FIG. 6), cDNA was diluted 3-4 fold in water, and 4 μl cDNA solution was directly transferred to 384-well PCR plates, to which 5 μl of a master mix (BioRad, Hercules, Calif.) and 1 μl of oligonucleotide cocktail (15 μM each of forward and reverse primer) were applied, and PCR was conducted in PRISM 7900HT (ABI), with one cycle of 95° C. for 10 min followed by 45 cycles of 95° C. for 30 sec and 60° C. for 1 min. Each gene was amplified in separate wells. The Ct was determined by analytical software (SDS, ABI). Although 1×RT buffer was used as a negative control, none of the primer pairs produced non-specific primer-dimers under these experimental conditions. For PUMA in FIG. 8, immobilized cDNA on the oligo(dT)-immobilized microplates was directly amplified in an iCycler (BioRad).
Quantitation of various mRNAs was conducted using the following method. Triplicate aliquots of 50 μl each of heparinized whole blood was applied to 96-well filterplates to trap leukocytes. The filterplates were placed over collection plates, and 150 μl 5 mM Tris, pH 7.4, was applied. […]

The mark [1] stands for this setting: 20 μM BLM or 100 μM VP-16, 4 hours at 37° C. (FIG. 6).

With `COc1cc([C@@H]2c3cc4c(cc3[C@@H](O[C@@H]3O[C@@H]5CO[C@@H](C)O[C@H]5[C@H](O)[C@H]3O)[C@H]3COC(=O)[C@H]23)OCO4)cc(OC)c1O` [VP-16, etoposide], the “kinetics of PUMA induction” value is “transient induction”. Further, under setting [1], the PUMA induction entry is on record as “responses were confirmed in all individuals”. Moreover, where the note is “100 μM VP-16, 2 hours at 37° C. (FIG. 9C)”, the PUMA induction entry is given as “induced”.
bleomycin [BLM]: the “kinetics of PUMA induction” value is “increased continuously for 8 hours”. Moreover, the “concentration at which significant induction of PUMA was observed” value (0-20 μM BLM, 4 hours at 37° C. (FIG. 7)) was “more than 0.1 VM”. Under setting [1], the PUMA induction result was “responses were confirmed in all individuals”. In addition, the PUMA induction result (BLM at concentrations as low as 0.2 μM, 2 hours at 37° C., all cases (FIG. 10C)) is listed as “induced”.
